The text below walks through data of ChEMBL document CHEMBL6103638, “Dual Modulator of FXR and HSD17B13: Revitalizing FXR Therapies in MASH” (J Med Chem, 2025).

This assay addresses T1, Bile acid receptor (Homo sapiens, UniProt Q96RI1).
T1 sequence (Q96RI1 whole entry): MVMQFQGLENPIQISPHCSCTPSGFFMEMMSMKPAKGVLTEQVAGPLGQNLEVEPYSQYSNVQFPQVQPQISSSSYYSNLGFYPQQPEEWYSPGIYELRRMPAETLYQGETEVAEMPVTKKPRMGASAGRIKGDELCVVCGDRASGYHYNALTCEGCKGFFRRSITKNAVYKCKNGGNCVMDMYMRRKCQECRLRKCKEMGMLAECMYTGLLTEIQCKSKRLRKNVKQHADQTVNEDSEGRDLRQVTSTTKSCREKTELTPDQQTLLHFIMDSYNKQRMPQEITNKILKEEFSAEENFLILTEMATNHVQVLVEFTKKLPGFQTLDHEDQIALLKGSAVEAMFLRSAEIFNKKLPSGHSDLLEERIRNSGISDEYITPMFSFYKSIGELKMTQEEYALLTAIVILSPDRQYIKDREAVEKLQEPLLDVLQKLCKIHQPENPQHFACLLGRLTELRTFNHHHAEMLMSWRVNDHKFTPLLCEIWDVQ
As to the kind of experiment: Agonist activity at FXR (unknown origin).

For orientation: EC50 means the midpoint of the concentration-response curve. A high value points to a less potent agent. As for `CC(C)(C)c1ccc(-n2cnc3c(NC(=O)Cc4ccc(C(=O)O)cc4)cccc32)cc1`, the EC50 is 0.78 µM.
